Assay results: PubChem BioAssay (NCI)
Several values for one entry are separate records, joined by “and”; a condition that tells them apart may be missing. Identical values can stand only once.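 Cells were grown in 96-well plates and exposed to each compound for 48 hours at five concentrations; endpoints were interpolated linearly between bracketing concentrations, or set to the highest concentration if not reached. GI50 is the concentration that inhibits growth by half. Definition used: TGI = concentration required for complete inhibition of growth.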

Tests used:
Experiment in all cases: NCI-60 cell line screen, 48 h
A549 NSCLC = system: A549 NSCLC
BT-549 breast = system: BT-549 breast
LOX IMVI melanoma = system: LOX IMVI melanoma
MDA-MB-435 = system: MDA-MB-435
NCI-H522 lung = system: NCI-H522 lung
NCI/ADR-RES ovarian = system: NCI/ADR-RES ovarian
SW-620 colon = system: SW-620 colon
DMS 273 small cell lung = system: DMS 273 small cell lung
XF 498 CNS = system: XF 498 CNS
KM20L2 colon = system: KM20L2 colon

| SMILES | TGI (A549 NSCLC) | TGI (BT-549 breast) [µM] | TGI (LOX IMVI melanoma) | TGI (MDA-MB-435) [µM] | TGI (NCI-H522 lung) | TGI (NCI/ADR-RES ovarian) | TGI (SW-620 colon) | GI50 (A549 NSCLC) [µM] | GI50 (BT-549 breast) [µM] | GI50 (LOX IMVI melanoma) [µM] | GI50 (MDA-MB-435) [µM] | GI50 (NCI-H522 lung) [µM] | GI50 (NCI/ADR-RES ovarian) [µM] | GI50 (SW-620 colon) [µM] | TGI (DMS 273 small cell lung) [µM] | TGI (XF 498 CNS) [µM] | TGI (KM20L2 colon) [µM] |
| --- | --- | --- | --- | --- | --- | --- | --- | --- | --- | --- | --- | --- | --- | --- | --- | --- | --- |
| C=C1C(=O)O[C@@H]2/C=C(\C)CC/C=C(/COC(C)=O)C[C@@H](OC(C)=O)[C@@H]12 | > 100 µM | 16.7 | 13.1 µM | 54.4 | 3.2 µM | 57.8 µM | 15.4 µM |  |  |  |  |  |  |  |  |  |  |
| CCCCC(O)(c1ccc(Cl)cc1)C(CN1CCOCC1)c1ccc(Cl)cc1 (configuration not stated) | 30.9 µM | 31 | 28.3 µM | 39 | 21.7 µM | 32.2 µM | 25.3 µM | 12.5 | 15.7 | 14.4 | 15.3 | 7.26 | 12 | 11.5 |  |  |  |
| Clc1nc(Cl)c(Cl)c(-c2ccccc2)n1 | 27.9 µM | 7.81 | 5.59 µM | 28.7 | 3.2 µM | > 100 µM | 5.62 µM |  |  |  |  |  |  |  |  |  |  |
| CN1C(=O)c2cccc3cc([N+](=O)[O-])cc(c23)C1=O | > 10 µM | > 10 | > 10 µM | > 10 | > 10 µM | > 10 µM | > 10 µM |  |  |  |  |  |  |  |  |  |  |
| CC(C)(C)c1ccc2c(c1)S(=O)(=O)Nc1ccccc1NS(=O)(=O)c1cc(C(C)(C)C)ccc1OCCOCCOCCO2 | > 100 µM |  | > 100 µM |  |  |  | > 100 µM |  |  |  |  |  |  |  | > 100 |  |  |
| COC(=O)[C@H](C)NC(=O)NC(=O)NC(=O)CI | 36.3 µM | 28.6 | 5.97 µM | 23.5 | 3.68 µM | 43 µM | 34.4 µM | 20 | 15 | 2.27 | 10.3 | 1.96 | 19.1 | 16.5 |  |  |  |
| CC1CC[C@]2(C(=O)O)CCC3(C)C(=CC(=O)C4[C@@]5(C)CCC(=O)C(C)(C)C5CC[C@]43C)[C@@H]2[C@H]1C (some centres not stated) | > 100 µM |  | 42.8 µM |  | 71.3 µM |  | > 100 µM |  |  |  |  |  |  |  |  | 29.5 |  |
| C=C1C(=O)O[C@H]2[C@H]1CC/C(COC(=O)C(=O)c1cn(Cc3ccccc3)c3ccccc13)=C\CC[C@@]1(C)O[C@@H]21 | 6.35 µM | 4.1 | 2.57 µM | 7.77 | 3.42 µM | 9.83 µM | 7.77 µM | 2.13 | 1.8 | 1.21 | 2.41 | 1.63 | 2.75 | 2.33 |  |  |  |
| Cc1cc(S(=O)(=O)Nc2nnc(-c3ccccc3)c(-c3ccccc3)n2)c(SCC(N)=O)cc1Cl | > 100 µM | 90.6 | 85.1 µM | > 100 | 50.9 µM | > 100 µM | > 100 µM | > 100 | 27.4 | 34.6 | 51.5 | 22.9 | > 100 | 41.5 |  |  |  |
| CCOc1ccccc1NC(=O)CC(C(=O)OC)C(=O)C(=O)OC (configuration not stated) | > 100 µM |  | > 100 µM |  | > 100 µM |  | > 100 µM |  |  |  |  |  |  |  | > 100 |  | > 100 |
| CC(C)(C)c1cc(Br)c(O)c(CN(Cc2cc(C(C)(C)C)cc(Br)c2O)C2CCCCC2)c1 | 27.1 µM | 29.2 | 29.8 µM | 27.4 | 25.1 µM | 24.3 µM | 25.8 µM |  |  |  |  |  |  |  |  |  |  |
| COc1cc2nc3cc([N+](=O)[O-])ccc3c(NCCCNCCO)c2cc1OC | 0.635 µM | 0.962 | 0.664 µM | 0.336 | 0.213 µM | > 100 µM | 1.03 µM | 0.255 | 0.297 | 0.243 | 0.179 | 0.041 | 31.4 | 0.21 |  |  |  |
| COc1cc2c(c(OC)c1OC)-c1ccc(OC)c(=O)cc1[C@@H](NC(=O)c1ccccc1)CC2 | 30 µM and > 100 µM | 30 | 30 µM and 53.4 µM | < 0.003 | 0.0125 µM and 0.0205 µM | 1.15 µM and 1.05 µM | 30 µM and > 81.4 µM | < 0.003 | < 0.003 | 0.0105 | < 0.003 | 0.00357 |  | < 0.003 |  | 3.86 |  |
| O=C1C2C3C=C4c5ccccc5N(c5ccccc5)C4(C2C(=O)N1Cc1ccccc1)C1C(=O)N(Cc2ccccc2)C(=O)C31 (configuration not stated) | > 100 µM |  | > 100 µM |  |  |  | > 100 µM |  |  |  |  |  |  |  |  | > 100 | > 100 |
| Oc1ccccc1C(Sc1nc2ccccc2s1)Sc1nc2ccccc2s1 | > 100 µM | > 100 | > 100 µM | > 100 | 56.8 µM | > 100 µM | > 100 µM |  |  |  |  |  |  |  |  |  |  |
| O=C(NC1=CC(=O)c2ccccc2C1=O)c1ccccc1 | 16.4 µM | 14.9 | 2.63 µM | 2.29 | 2.76 µM | 14.9 µM | 2.82 µM | 2.91 | 0.706 | 1.08 | 0.94 | 0.702 | 1.26 | 1.15 |  |  |  |
| COC(=O)[C@@H](C)CNS(=O)(=O)N(c1cc(C(F)(F)F)cc(C(F)(F)F)c1)C1CCN(Cc2ccc(F)cc2)CC1 | 31 µM | 22.9 | 25 µM | 24.8 | 37 µM | 23.4 µM | 24.9 µM | 14 | 8.34 | 8.1 | 10.2 | 14.9 | 10.7 | 11.1 |  |  |  |
| NS(=O)(=O)c1ccc(NC2(C(=O)O)CCCC2)cc1 | > 100 µM | > 100 | > 100 µM | > 100 | > 100 µM | > 100 µM | > 100 µM |  |  |  |  |  |  |  |  |  |  |
| O=C(N/N=C/c1ccc(Cl)cc1)c1ccc(C(F)(F)F)nc1Nc1cccc(C(F)(F)F)c1 | 9.61 µM | 11.7 | 8 µM | 20.1 | 10.7 µM | 6.99 µM | 10.4 µM | 2.89 | 2.72 | 1.3 | 3.17 | 2.8 | 1.96 | 1.45 |  |  |  |
| c1cc(CNC23CC4CC(CC(C4)C2)C3)cc(C[N+](Cc2cccc(CNC34CC5CC(CC(C5)C3)C4)c2)(Cc2cccc(CNC34CC5CC(CC(C5)C3)C4)c2)Cc2cccc(CNC34CC5CC(CC(C5)C3)C4)c2)c1 (configuration not stated) | 36.4 µM | 11.6 | 5.3 µM | 8.81 | 6.49 µM | 19 µM | 16.5 µM | 8.91 | 4.27 | 2.11 | 3.45 | 3.06 | 6.01 | 5.23 |  |  |  |
